The test system of assay [1] is A549 (human lung carcinoma cell line). Put plainly: Glo assay of A549 cells (Table 3; ProteasomeGlo plating scheme). The assay is classed as cell-based. The note with it: Homo sapiens; A549 cells; read-out: PGLo A549. In outline: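 Luminescent read-out of cellular chymotrypsin-like proteasome activity: cells exposed to compound 105 min at 37° C., 5% CO2, then given Suc-LLVY-Glo reagent, shaken 2-5 min and kept dark 10-15 min before reading. Values are IC50 [nM].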

Assay [2] relates to Hs 746T (human gastric carcinoma cell line). Put plainly: 48 hr CTG viability assay, Hs 746T. The assay is classed as cell-based. The note with it: Hs746T, 48 hr CTG, read-out: Hs 746T IC50. In outline:
(§1)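 Growth inhibition by compound over 48 h; IC50 (nM) derived from duplicate CellTiter-Glo luminescence readings across 0.0015–10 uM.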

Assay [3] concerns MM1 S (B lymphoblast cell line). Put plainly: 48 hr CTG viability assay, MM1S. The conditions noted are these: Homo sapiens, 48 hr CTG, read-out: MM1S IC50. The assay is classed as cell-based. In outline:
as §1

Assay [4] addresses T1, β5 subunit of the human immunoproteasome (IPS) (Homo sapiens, UniProt P28062).
T1 construct: purchased Boston Biochem E-370
Put plainly: β5 inhibition assay, human immunoproteasome (Suc-LLVY-AMC). The assay is classed as biochemical. The conditions noted are these: IC50 class, Suc-LLVY-AMC substrate. In outline:
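Human immunoproteasome (1 nM final) was preincubated 10 min at RT with compound in 100 mM HEPES pH 7.5, 50 mM NaCl, 0.02% SDS, 1 mM DTT. Suc-LLVY-AMC (22.6 μM final) was then added for 4 h at RT in the dark. After stopping with 1 μM bortezomib, AMC fluorescence was read (ex 355/em 460 nm).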

The target of assay [5] is T2, β5 subunit of the human constitutive proteasome (CPS) (Homo sapiens, UniProt P28074).
T2 construct: purchased Boston Biochem E-360
Put plainly: β5 inhibition assay, human constitutive proteasome (Suc-LLVY-AMC). The assay is classed as biochemical. The note with it: IC50 class, Suc-LLVY-AMC substrate. How it is done: The enzymatic activity of the β5 subunit of the human constitutive proteasome (CPS) is analyzed. In another assay, which differs from the assay of the human constitutive proteasome only in using the human immunoproteasome (IPS) the enzymatic activity of the β5 subunit of the human immunoproteasome (IPS) is analyzed. […] Inhibition is indicated as IC50 [nM] (“-”=not measured).

Assay [6] relates to RPMI 8226 (B lymphocyte cell line, multiple myeloma). Put plainly: 48 hr CTG viability assay, RPMI 8226. The assay is classed as cell-based. The note with it: Homo sapiens, RPMI-8226; 48 hr CTG; read-out: RPMI-8226 IC50. In outline: as §1

Molecules are shown by their SMILES.

`Cc1ccc2cc1CNC(=O)[C@H](CCc1ccccc1)NC(=O)[C@@H](NC(=O)CCOCC1CC3(CCC3)C1)CC(=O)N1CCCC(CCO2)C1` (stereo partly drawn) [Compound 615, N-((9S,12S)-5^4-methyl-8,11,14-trioxo-9-phenethyl-4-oxa-7,10-diaza-1(3,1)-piperidina-5(1,3)-benzenacyclotetradecaphane-12-yl)-3-(spiro[3.3]heptan-2-ylmethoxy)propanamide]: the IC50 in assay [1], in assay [2], in assay [3], in assay [4], in assay [5] and in assay [6] was less than 0.1 µM in each case.
As to `Cc1ccc2cc1CNC(=O)[C@H](CCc1ccccc1)NC(=O)[C@@H](NC(=O)Cc1ccccc1)CCNC(=O)N1CCCC(CCO2)C1` (stereo partly drawn) [Compound 653, N-((9S,12S)-5^4-methyl-8,11,16-trioxo-9-phenethyl-4-oxa-7,10,15-triaza-1(3,1)-piperidina-5(1,3)-benzenacyclohexadecaphane-12-yl)-2-phenylacetamide], the IC50 in assay [1], in assay [2], in assay [3], in assay [4], in assay [5] and in assay [6] was less than 0.1 µM in each case.
Regarding `Cc1ccc2cc1CNC(=O)[C@H](CCc1ccccc1)NC(=O)[C@@H](NC(=O)CCNCc1ccc(-c3ccncc3)cc1)CC(=O)N1CCCC(CCO2)C1` (stereo partly drawn) [Compound 603, N-((9S,12S)-5^4-methyl-8,11,14-trioxo-9-phenethyl-4-oxa-7,10-diaza-1(3,1)-piperidina-5(1,3)-benzenacyclotetradecaphane-12-yl)-3-((4-(pyridin-4-yl)benzyl)amino)propanamide], the IC50 in assay [1], in assay [2], in assay [3], in assay [4], in assay [5] and in assay [6] was less than 0.1 µM each time.
Take `Cc1ccc2cc1CNC(=O)[C@H](CCc1ccccc1)NC(=O)[C@@H](NC(=O)CCOC1CCC1)CC(=O)N1CCCC(CCO2)C1` (stereo partly drawn) [Compound 595, 3-cyclobutoxy-N-((9S,12S)-5^4-methyl-8,11,14-trioxo-9-phenethyl-4-oxa-7,10-diaza-1(3,1)-piperidina-5(1,3)-benzenacyclotetradecaphane-12-yl)propanamide]: the IC50 in assay [1], in assay [2], in assay [3], in assay [4], in assay [5] and in assay [6] was less than 0.1 µM in each case.
Consider `COc1cccc(CCCOCCC(=O)N[C@H]2CC(=O)N3CCCC(CCOc4ccc(C)c(c4)CNC(=O)[C@H](CCc4ccccc4)NC2=O)C3)c1` (stereo partly drawn) [Compound 607, 3-(3-(3-methoxyphenyl)propoxy)-N-((9S,12S)-5^4-methyl-8,11,14-trioxo-9-phenethyl-4-oxa-7,10-diaza-1(3,1)-piperidina-5(1,3)-benzenacyclotetradecaphane-12-yl)propanamide], for which the IC50 in assay [1], in assay [2], in assay [3], in assay [4], in assay [5] and in assay [6] was less than 0.1 µM throughout.
Consider `Cc1ccc2cc1CNC(=O)[C@H](CCc1ccccc1)NC(=O)[C@@H](NC(=O)C1CC3CCC(C1)N3C(=O)OC(C)(C)C)CC(=O)N1CCCC(CCO2)C1` (stereo partly drawn) [Compound 605, tert-butyl 3-(((9S,12S)-5^4-methyl-8,11,14-trioxo-9-phenethyl-4-oxa-7,10-diaza-1(3,1)-piperidina-5(1,3)-benzenacyclotetradecaphane-12-yl)carbamoyl)-8-azabicyclo[3.2.1]octane-8-carboxylate], for which the IC50 in assay [1] was less than 0.1 µM; in assay [2], 0.1 to 0.5 µM; in assay [3], less than 0.1 µM; in assay [4] it was less than 0.1 µM; in assay [5], less than 0.1 µM; in assay [6] it was less than 0.1 µM.
In the case of `Cc1ccc2cc1CNC(=O)[C@H](CCc1ccccc1)NC(=O)[C@@H](NC(=O)CCNC(=O)C1CC3CCC1C3)CC(=O)N1CCCC(CCO2)C1` (stereo partly drawn) [Compound 617, N-(3-(((9S,12S)-5^4-methyl-8,11,14-trioxo-9-phenethyl-4-oxa-7,10-diaza-1(3,1)-piperidina-5(1,3)-benzenacyclotetradecaphane-12-yl)amino)-3-oxopropyl)bicyclo[2.2.1]heptane-2-carboxamide], the IC50 in assay [1], in assay [2], in assay [3], in assay [4], in assay [5] and in assay [6] was less than 0.1 µM each time.
Turning to `Cc1ccc2cc1CNC(=O)[C@H](CCc1ccccc1)NC(=O)[C@@H](NC(=O)CCOCCCC1CC1)CC(=O)N1CCCC(CCO2)C1` (stereo partly drawn) [Compound 626, 3-(3-cyclopropylpropoxy)-N-((9S,12S)-5^4-methyl-8,11,14-trioxo-9-phenethyl-4-oxa-7,10-diaza-1(3,1)-piperidina-5(1,3)-benzenacyclotetradecaphane-12-yl)propanamide], the IC50 in assay [1], in assay [2], in assay [3], in assay [4], in assay [5] and in assay [6] was less than 0.1 µM each time.
For `Cc1ccc2cc1CNC(=O)[C@H](CCc1ccccc1)NC(=O)[C@@H](NC(=O)CCNCc1ccccc1)CC(=O)N1CCCC(CCO2)C1` (stereo partly drawn) [Compound 647, 3-(benzylamino)-N-((9S,12S)-5^4-methyl-8,11,14-trioxo-9-phenethyl-4-oxa-7,10-diaza-1(3,1)-piperidina-5(1,3)-benzenacyclotetradecaphane-12-yl)propanamide], the IC50 in assay [1], in assay [2], in assay [3], in assay [4], in assay [5] and in assay [6] was less than 0.1 µM each time.
Regarding `COc1ccccc1CCOCCC(=O)N[C@H]1CC(=O)N2CCCC(CCOc3ccc(C)c(c3)CNC(=O)[C@H](CCc3ccccc3)NC1=O)C2` (stereo partly drawn) [Compound 582, 3-(2-methoxyphenethoxy)-N-((9S,12S)-5^4-methyl-8,11,14-trioxo-9-phenethyl-4-oxa-7,10-diaza-1(3,1)-piperidina-5(1,3)-benzenacyclotetradecaphane-12-yl)propanamide], the IC50 in assay [1], in assay [2], in assay [3], in assay [4], in assay [5] and in assay [6] was less than 0.1 µM in each case.
Consider `Cc1ccc2cc1CNC(=O)[C@H](CCc1ccccc1)NC(=O)[C@@H](NC(=O)CCNC(=O)c1ccc(C3CCCCC3)cc1)CC(=O)N1CCCC(CCO2)C1` (stereo partly drawn) [Compound 656, 4-cyclohexyl-N-(3-(((9S,12S)-5^4-methyl-8,11,14-trioxo-9-phenethyl-4-oxa-7,10-diaza-1(3,1)-piperidina-5(1,3)-benzenacyclotetradecaphane-12-yl)amino)-3-oxopropyl)benzamide], for which the IC50 in assay [1], in assay [2], in assay [3], in assay [4], in assay [5] and in assay [6] was less than 0.1 µM each time.
Regarding `Cc1ccc2cc1CNC(=O)[C@H](CCc1ccccc1)NC(=O)[C@@H](NC(=O)C1CCC3(CCOCC3)CC1)CC(=O)N1CCCC(CCO2)C1` (stereo partly drawn) [Compound 584, N-((9S,12S)-5^4-methyl-8,11,14-trioxo-9-phenethyl-4-oxa-7,10-diaza-1(3,1)-piperidina-5(1,3)-benzenacyclotetradecaphane-12-yl)-3-oxaspiro[5.5]undecane-9-carboxamide], the IC50 in assay [1], in assay [2], in assay [3], in assay [4], in assay [5] and in assay [6] was less than 0.1 µM each time.
For the compound `Cc1ccc2cc1CNC(=O)[C@H](CCc1ccccc1)NC(=O)[C@@H](NC(=O)C(C)(C)c1ccc3ncccc3c1)CC(=O)N1CCCC(CCO2)C1` (stereo partly drawn) [Compound 609, 2-methyl-N-((9S,12S)-5^4-methyl-8,11,14-trioxo-9-phenethyl-4-oxa-7,10-diaza-1(3,1)-piperidina-5(1,3)-benzenacyclotetradecaphane-12-yl)-2-(quinolin-6-yl)propanamide], the IC50 in assay [1], in assay [2], in assay [3], in assay [4], in assay [5] and in assay [6] was less than 0.1 µM in each case.
